Where two headings read alike, the source gives them in different places.
Columns and labels:
KIT(D816H) = KIT(D816H) (Homo sapiens (Human), UniProt P10721, D816H); assay: Kinase binding screen; details: read-out: Percent Control at 100 nM Compound Concentration
PKMYT1 = PKMYT1 (Homo sapiens (Human), UniProt Q99640); assay: Kinase binding screen; details: read-out: Percent Control at 100 nM Compound Concentration
MEK3 = MEK3 (Homo sapiens (Human), UniProt P46734); assay: Kinase binding screen; details: read-out: Percent Control at 100 nM Compound Concentration
PHKG1 = PHKG1 (Homo sapiens (Human), UniProt Q16816); assay: Kinase binding screen; details: read-out: Percent Control at 100 nM Compound Concentration
[1] = molecular target: ABL1(H396P)-nonphosphorylated (Homo sapiens (Human), UniProt P00519, H396P); assay: Kinase binding screen; details: read-out: Percent Control at 100 nM Compound Concentration
CAMK1D = CAMK1D (Homo sapiens (Human), UniProt Q8IU85); assay: Kinase binding screen; details: read-out: Percent Control at 100 nM Compound Concentration
NDR2 = NDR2 (Homo sapiens (Human), UniProt Q9Y2H1); assay: Kinase binding screen; details: read-out: Percent Control at 100 nM Compound Concentration
EGFR(L747-T751del,Sins) = EGFR(L747-T751del,Sins) (Homo sapiens (Human), UniProt P00533, DEL747-751/INS746S); assay: Kinase binding screen; details: read-out: Percent Control at 100 nM Compound Concentration
TNNI3K = TNNI3K (Homo sapiens (Human), UniProt Q59H18); assay: Kinase binding screen; details: read-out: Percent Control at 100 nM Compound Concentration
non-mutant kinases = assay: Selectivity score (S-score) from kinase binding screen; design: species or system human; details: Screening Concentration 100 nM; 403 non-mutant kinases
Protocol: Based on the binding affinities in Table D, a selectivity score (S-score) was calculated for each compound as a quantitative measure of compound selectivity. The S-score is calculated by dividing the number of kinases that a compound binds to by the total number of distinct kinases tested, excluding mutant variants. The selectivity score value can be calculated using % Ctrl as a potency threshold, as shown below, and provides a quantitative method of describing compound selectivity to facilitate comparison of different compounds.
S(10)=(number of non-mutant kinases with % Ctrl<[…])/(number of non-mutant kinases tested).
[…]=(number of non-mutant kinases with % Ctrl<[…])/(number of non-mutant kinases tested).
[…]=(number of non-mutant kinases with % Ctrl<1)/(number of non-mutant kinases tested).

CDK9 = CDK9 (Homo sapiens (Human), UniProt P50750); assay: Kinase binding screen; details: read-out: Percent Control at 100 nM Compound Concentration
[2] = molecular target: ABL1(Q252H)-phosphorylated (Homo sapiens (Human), UniProt P00519, Q252H); assay: Kinase binding screen; details: read-out: Percent Control at 100 nM Compound Concentration
MERTK = MERTK (Homo sapiens (Human), UniProt Q12866); assay: Kinase binding screen; details: read-out: Percent Control at 100 nM Compound Concentration
SGK2 = SGK2 (Homo sapiens (Human), UniProt Q9HBY8); assay: Kinase binding screen; details: read-out: Percent Control at 100 nM Compound Concentration
SGK2, sequence (Q9HBY8 whole entry): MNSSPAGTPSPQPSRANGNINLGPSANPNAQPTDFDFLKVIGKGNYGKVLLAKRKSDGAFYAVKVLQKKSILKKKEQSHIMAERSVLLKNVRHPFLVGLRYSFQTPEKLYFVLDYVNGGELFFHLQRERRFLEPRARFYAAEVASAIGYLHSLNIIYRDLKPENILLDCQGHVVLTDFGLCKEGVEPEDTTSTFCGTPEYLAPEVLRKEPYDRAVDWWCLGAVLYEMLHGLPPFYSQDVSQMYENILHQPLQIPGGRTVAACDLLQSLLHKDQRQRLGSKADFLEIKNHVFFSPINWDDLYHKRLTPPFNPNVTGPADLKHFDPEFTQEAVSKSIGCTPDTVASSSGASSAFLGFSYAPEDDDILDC

MELK = MELK (Homo sapiens (Human), UniProt Q14680); assay: Kinase binding screen; details: read-out: Percent Control at 100 nM Compound Concentration
SNARK = SNARK (Homo sapiens (Human), UniProt Q9H093); assay: Kinase binding screen; details: read-out: Percent Control at 100 nM Compound Concentration
SNARK, sequence (Q9H093 whole entry): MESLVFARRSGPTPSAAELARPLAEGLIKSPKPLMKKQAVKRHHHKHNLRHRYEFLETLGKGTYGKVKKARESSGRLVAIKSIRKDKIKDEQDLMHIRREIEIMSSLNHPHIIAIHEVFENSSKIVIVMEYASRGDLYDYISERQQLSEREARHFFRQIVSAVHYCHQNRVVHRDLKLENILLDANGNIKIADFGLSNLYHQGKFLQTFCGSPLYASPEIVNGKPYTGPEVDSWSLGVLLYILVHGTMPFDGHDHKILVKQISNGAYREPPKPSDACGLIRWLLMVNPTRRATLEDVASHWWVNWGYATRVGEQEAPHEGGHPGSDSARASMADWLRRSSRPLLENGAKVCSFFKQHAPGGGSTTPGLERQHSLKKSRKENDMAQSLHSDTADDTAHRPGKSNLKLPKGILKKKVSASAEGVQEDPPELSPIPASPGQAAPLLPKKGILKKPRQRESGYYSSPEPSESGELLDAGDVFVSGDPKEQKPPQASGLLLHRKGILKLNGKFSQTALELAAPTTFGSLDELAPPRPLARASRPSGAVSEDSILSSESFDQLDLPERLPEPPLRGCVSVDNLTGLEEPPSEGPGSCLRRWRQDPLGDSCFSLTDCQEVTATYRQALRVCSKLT

RIPK5 = RIPK5 (Homo sapiens (Human), UniProt Q6XUX3); assay: Kinase binding screen; details: read-out: Percent Control at 100 nM Compound Concentration
RIPK5, sequence (Q6XUX3 whole entry): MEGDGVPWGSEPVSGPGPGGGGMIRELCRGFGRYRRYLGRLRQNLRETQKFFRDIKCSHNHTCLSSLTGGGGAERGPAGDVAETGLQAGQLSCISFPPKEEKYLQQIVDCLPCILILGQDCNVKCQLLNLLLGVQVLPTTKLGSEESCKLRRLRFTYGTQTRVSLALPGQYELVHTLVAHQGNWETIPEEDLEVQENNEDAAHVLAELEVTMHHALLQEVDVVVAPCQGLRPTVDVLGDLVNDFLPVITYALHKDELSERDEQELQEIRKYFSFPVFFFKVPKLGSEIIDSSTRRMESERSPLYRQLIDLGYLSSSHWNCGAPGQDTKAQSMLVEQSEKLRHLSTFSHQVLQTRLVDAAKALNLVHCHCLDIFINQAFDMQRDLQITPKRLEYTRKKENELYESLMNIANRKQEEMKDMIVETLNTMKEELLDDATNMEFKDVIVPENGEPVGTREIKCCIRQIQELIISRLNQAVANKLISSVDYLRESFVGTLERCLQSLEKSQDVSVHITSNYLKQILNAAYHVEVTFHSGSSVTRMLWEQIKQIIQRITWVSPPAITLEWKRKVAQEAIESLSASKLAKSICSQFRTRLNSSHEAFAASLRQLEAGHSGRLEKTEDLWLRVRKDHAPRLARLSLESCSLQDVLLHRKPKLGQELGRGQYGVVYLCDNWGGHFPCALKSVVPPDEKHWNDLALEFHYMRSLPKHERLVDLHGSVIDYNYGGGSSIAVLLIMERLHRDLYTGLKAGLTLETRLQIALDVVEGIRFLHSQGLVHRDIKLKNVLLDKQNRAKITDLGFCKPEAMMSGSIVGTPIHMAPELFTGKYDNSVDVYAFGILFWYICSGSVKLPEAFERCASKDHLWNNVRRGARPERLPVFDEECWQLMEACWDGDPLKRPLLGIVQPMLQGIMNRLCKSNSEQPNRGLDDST

PKAC-beta = PKAC-beta (Homo sapiens (Human), UniProt P22694); assay: Kinase binding screen; details: read-out: Percent Control at 100 nM Compound Concentration
ABL2 = ABL2 (Homo sapiens (Human), UniProt P42684); assay: Kinase binding screen; details: read-out: Percent Control at 100 nM Compound Concentration
CSNK1G3 = CSNK1G3 (Homo sapiens (Human), UniProt Q9Y6M4); assay: Kinase binding screen; details: read-out: Percent Control at 100 nM Compound Concentration
PCTK2 = PCTK2 (Homo sapiens (Human), UniProt Q00537); assay: Kinase binding screen; details: read-out: Percent Control at 100 nM Compound Concentration
SGK = SGK (Homo sapiens (Human), UniProt O00141); assay: Kinase binding screen; details: read-out: Percent Control at 100 nM Compound Concentration
SGK, sequence (O00141 whole entry): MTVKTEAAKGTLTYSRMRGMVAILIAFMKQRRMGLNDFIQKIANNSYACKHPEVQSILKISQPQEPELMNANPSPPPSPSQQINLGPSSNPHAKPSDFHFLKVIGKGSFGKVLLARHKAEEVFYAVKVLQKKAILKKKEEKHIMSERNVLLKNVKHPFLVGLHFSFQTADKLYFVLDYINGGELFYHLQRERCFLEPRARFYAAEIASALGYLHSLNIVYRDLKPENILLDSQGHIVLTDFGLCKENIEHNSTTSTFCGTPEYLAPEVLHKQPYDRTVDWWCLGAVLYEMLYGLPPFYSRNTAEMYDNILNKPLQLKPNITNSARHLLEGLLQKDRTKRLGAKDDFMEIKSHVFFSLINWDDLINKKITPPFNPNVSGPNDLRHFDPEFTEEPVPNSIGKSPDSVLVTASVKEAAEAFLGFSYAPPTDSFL

GAK = GAK (Homo sapiens (Human), UniProt O14976); assay: Kinase binding screen; details: read-out: Percent Control at 100 nM Compound Concentration
GAK, sequence (O14976 whole entry): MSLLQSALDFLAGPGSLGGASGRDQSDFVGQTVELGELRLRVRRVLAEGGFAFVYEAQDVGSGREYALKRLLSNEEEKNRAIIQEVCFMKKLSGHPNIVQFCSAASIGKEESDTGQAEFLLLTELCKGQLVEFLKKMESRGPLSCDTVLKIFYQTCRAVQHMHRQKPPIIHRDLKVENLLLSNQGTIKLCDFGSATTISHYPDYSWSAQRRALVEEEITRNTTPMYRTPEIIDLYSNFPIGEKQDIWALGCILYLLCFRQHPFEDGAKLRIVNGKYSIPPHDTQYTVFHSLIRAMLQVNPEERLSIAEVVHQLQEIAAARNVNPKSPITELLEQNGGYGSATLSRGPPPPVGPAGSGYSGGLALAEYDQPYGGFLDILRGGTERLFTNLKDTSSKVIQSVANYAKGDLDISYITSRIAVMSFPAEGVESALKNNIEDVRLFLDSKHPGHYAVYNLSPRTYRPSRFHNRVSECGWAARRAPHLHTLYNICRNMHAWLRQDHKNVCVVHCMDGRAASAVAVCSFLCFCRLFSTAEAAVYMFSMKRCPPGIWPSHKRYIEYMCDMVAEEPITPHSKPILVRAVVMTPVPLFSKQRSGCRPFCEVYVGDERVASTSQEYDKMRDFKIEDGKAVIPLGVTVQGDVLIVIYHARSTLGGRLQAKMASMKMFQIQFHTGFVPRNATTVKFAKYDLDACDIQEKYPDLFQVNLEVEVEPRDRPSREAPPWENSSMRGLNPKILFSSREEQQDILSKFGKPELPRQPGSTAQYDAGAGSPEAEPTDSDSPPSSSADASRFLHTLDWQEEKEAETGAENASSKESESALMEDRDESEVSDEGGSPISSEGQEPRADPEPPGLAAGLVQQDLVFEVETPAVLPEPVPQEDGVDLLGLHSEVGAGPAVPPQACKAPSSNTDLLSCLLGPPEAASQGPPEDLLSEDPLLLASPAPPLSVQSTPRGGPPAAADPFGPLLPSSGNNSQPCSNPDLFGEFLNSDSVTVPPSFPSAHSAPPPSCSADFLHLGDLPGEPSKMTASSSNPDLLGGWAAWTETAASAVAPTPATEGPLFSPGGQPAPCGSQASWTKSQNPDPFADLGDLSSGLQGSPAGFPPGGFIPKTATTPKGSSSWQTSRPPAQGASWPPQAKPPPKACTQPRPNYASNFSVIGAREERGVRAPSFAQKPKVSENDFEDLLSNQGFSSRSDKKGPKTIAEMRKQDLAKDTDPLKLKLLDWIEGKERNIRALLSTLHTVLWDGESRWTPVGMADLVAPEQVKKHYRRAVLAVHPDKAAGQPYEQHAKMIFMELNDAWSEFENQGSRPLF

MST3 = MST3 (Homo sapiens (Human), UniProt Q9Y6E0); assay: Kinase binding screen; details: read-out: Percent Control at 100 nM Compound Concentration
MST3, sequence (Q9Y6E0 whole entry): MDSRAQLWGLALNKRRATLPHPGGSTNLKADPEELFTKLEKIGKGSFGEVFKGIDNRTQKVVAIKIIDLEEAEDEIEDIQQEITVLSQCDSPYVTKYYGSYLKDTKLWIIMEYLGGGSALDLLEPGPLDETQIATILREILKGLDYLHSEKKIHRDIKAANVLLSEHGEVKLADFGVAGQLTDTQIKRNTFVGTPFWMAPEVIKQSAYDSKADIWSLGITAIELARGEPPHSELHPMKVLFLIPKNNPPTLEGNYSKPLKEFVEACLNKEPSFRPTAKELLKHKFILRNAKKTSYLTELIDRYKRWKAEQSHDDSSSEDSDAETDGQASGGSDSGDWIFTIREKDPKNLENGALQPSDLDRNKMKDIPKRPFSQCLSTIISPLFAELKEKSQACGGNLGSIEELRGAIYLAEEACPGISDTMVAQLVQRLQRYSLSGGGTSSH

NEK10 = NEK10 (Homo sapiens (Human), UniProt Q6ZWH5); assay: Kinase binding screen; details: read-out: Percent Control at 100 nM Compound Concentration
BUB1 = BUB1 (Homo sapiens (Human), UniProt O43683); assay: Kinase binding screen; details: read-out: Percent Control at 100 nM Compound Concentration

KIT(D816H), sequence (P10721 26-976 D816H): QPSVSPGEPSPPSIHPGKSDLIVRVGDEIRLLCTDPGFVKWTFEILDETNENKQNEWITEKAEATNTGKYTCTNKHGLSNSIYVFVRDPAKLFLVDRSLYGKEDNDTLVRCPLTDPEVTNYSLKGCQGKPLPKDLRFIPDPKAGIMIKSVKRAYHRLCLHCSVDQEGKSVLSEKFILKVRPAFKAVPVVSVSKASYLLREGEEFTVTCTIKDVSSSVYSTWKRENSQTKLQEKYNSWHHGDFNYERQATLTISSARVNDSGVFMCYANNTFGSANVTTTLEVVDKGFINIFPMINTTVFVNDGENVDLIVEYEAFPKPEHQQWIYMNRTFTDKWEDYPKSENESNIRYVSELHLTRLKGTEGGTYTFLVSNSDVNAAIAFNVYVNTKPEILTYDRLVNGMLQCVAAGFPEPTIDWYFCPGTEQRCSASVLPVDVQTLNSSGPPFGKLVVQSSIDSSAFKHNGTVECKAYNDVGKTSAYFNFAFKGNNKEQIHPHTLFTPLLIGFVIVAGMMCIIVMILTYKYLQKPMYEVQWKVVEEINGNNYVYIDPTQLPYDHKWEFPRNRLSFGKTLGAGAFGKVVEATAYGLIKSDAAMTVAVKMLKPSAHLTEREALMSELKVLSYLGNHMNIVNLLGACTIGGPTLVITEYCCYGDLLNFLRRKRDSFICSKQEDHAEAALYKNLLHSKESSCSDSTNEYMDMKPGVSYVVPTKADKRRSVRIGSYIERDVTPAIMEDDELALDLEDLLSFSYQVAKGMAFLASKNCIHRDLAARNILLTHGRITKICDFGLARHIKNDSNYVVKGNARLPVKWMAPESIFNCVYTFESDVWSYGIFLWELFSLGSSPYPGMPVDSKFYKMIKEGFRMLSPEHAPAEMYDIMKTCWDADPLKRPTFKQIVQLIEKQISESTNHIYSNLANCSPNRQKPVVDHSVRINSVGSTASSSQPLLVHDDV

Q: What does the source list for CN(C[C@@H](O)Cc1ccccc1)C(=O)c1cncc(C#Cc2cnn(C(F)F)c2)c1 [Example 2, (S)-5-((1-(difluoromethyl)-1H-pyrazol-4-yl)ethynyl)-N-(2-hydroxy-3-phenylpropyl)-N-methylnicotinamide]?
A: remaining activity at 0.1 µM (KIT(D816H); KIT(D816H)): 100%; remaining activity at 0.1 µM (PKMYT1; PKMYT1): 99%; remaining activity at 0.1 µM (MEK3; MEK3): 94%; remaining activity at 0.1 µM (PHKG1; PHKG1): 100%; remaining activity at 0.1 µM ([1]; ABL1(H396P)-nonphosphorylated): 88%; remaining activity at 0.1 µM (CAMK1D; CAMK1D): 100%; remaining activity at 0.1 µM (NDR2; NDR2): 94%; remaining activity at 0.1 µM (EGFR(L747-T751del,Sins); EGFR(L747-T751del,Sins)): 100%; remaining activity at 0.1 µM (TNNI3K; TNNI3K): 100%; Number of Hits S(1) (non-mutant kinases): 0; Number of Hits S(10) (non-mutant kinases): 1; Number of Hits S(35) (non-mutant kinases): 3; Selectivity Score S(10) (non-mutant kinases): 0.002; Selectivity Score S(35) (non-mutant kinases): 0.007; remaining activity at 0.1 µM (CDK9; CDK9): 100%; remaining activity at 0.1 µM ([2]; ABL1(Q252H)-phosphorylated): 99%; remaining activity at 0.1 µM (MERTK; MERTK): 100%; remaining activity at 0.1 µM (SGK2; SGK2): 100%; remaining activity at 0.1 µM (MELK; MELK): 77%; remaining activity at 0.1 µM (SNARK; SNARK): 99%; remaining activity at 0.1 µM (RIPK5; RIPK5): 100%; remaining activity at 0.1 µM (PKAC-beta; PKAC-beta): 92%; remaining activity at 0.1 µM (ABL2; ABL2): 100%; remaining activity at 0.1 µM (CSNK1G3; CSNK1G3): 99%; remaining activity at 0.1 µM (PCTK2; PCTK2): 100%; remaining activity at 0.1 µM (SGK; SGK): 96%; remaining activity at 0.1 µM (GAK; GAK): 100%; remaining activity at 0.1 µM (MST3; MST3): 100%; remaining activity at 0.1 µM (NEK10; NEK10): 91%; remaining activity at 0.1 µM (BUB1; BUB1): 93%

Q: Which remaining activity at 0.1 µM (KIT(D816H)) does the source give for CN(C[C@H](Cc1ccccc1)OP(=O)(O)O)C(=O)c1cncc(C#Cc2cnn(C(F)F)c2)c1 [Example 19, (S)-1-(5-((1-(difluoromethyl)-1H-pyrazol-4-yl)ethynyl)-N-methylnicotinamido)-3-phenylpropan-2-yl dihydrogen phosphate] here?
A: The remaining activity at 0.1 µM was 98%.

Q: What about the remaining activity at 0.1 µM (PKMYT1) of the same molecule?
A: The remaining activity at 0.1 µM was 100%.

Q: What about the remaining activity at 0.1 µM (MEK3) of the same molecule?
A: Its remaining activity at 0.1 µM is 79%.

Q: And the remaining activity at 0.1 µM (PHKG1)?
A: Its remaining activity at 0.1 µM is 100%.

Q: And the remaining activity at 0.1 µM [1]?
A: Its remaining activity at 0.1 µM is 96%.

Q: What about the remaining activity at 0.1 µM (CAMK1D) of the same molecule?
A: Its remaining activity at 0.1 µM is 74%.

Q: What about the remaining activity at 0.1 µM (NDR2) of the same molecule?
A: The remaining activity at 0.1 µM was 84%.

Q: What about the remaining activity at 0.1 µM (EGFR(L747-T751del,Sins)) of the same molecule?
A: Its remaining activity at 0.1 µM is 79%.

Q: What about the remaining activity at 0.1 µM (TNNI3K) of the same molecule?
A: The remaining activity at 0.1 µM was 100%.

Q: What about the “Number of Hits S(1)” value (non-mutant kinases) of the same molecule?
A: Its value is 0.

Q: What about the “Number of Hits S(10)” value (non-mutant kinases) of the same molecule?
A: Its value is 0.

Q: And the “Number of Hits S(35)” value (non-mutant kinases)?
A: Its value is 0.

Q: And the remaining activity at 0.1 µM (CDK9)?
A: Its remaining activity at 0.1 µM is 100%.

Q: And the remaining activity at 0.1 µM [2]?
A: The remaining activity at 0.1 µM was 99%.

Q: And the remaining activity at 0.1 µM (MERTK)?
A: The remaining activity at 0.1 µM was 100%.

Q: What about the remaining activity at 0.1 µM (SGK2) of the same molecule?
A: Its remaining activity at 0.1 µM is 93%.

Q: And the remaining activity at 0.1 µM (MELK)?
A: Its remaining activity at 0.1 µM is 83%.

Q: What about the remaining activity at 0.1 µM (SNARK) of the same molecule?
A: The remaining activity at 0.1 µM was 99%.

Q: What about the remaining activity at 0.1 µM (RIPK5) of the same molecule?
A: Its remaining activity at 0.1 µM is 96%.

Q: And the remaining activity at 0.1 µM (PKAC-beta)?
A: The remaining activity at 0.1 µM was 100%.

Q: And the remaining activity at 0.1 µM (ABL2)?
A: The remaining activity at 0.1 µM was 98%.

Q: And the remaining activity at 0.1 µM (CSNK1G3)?
A: Its remaining activity at 0.1 µM is 100%.

Q: What about the remaining activity at 0.1 µM (PCTK2) of the same molecule?
A: The remaining activity at 0.1 µM was 100%.

Q: And the remaining activity at 0.1 µM (SGK)?
A: Its remaining activity at 0.1 µM is 90%.

Q: What about the remaining activity at 0.1 µM (GAK) of the same molecule?
A: The remaining activity at 0.1 µM was 100%.

Q: What about the remaining activity at 0.1 µM (MST3) of the same molecule?
A: The remaining activity at 0.1 µM was 100%.

Q: What about the remaining activity at 0.1 µM (NEK10) of the same molecule?
A: The remaining activity at 0.1 µM was 100%.

Q: And the remaining activity at 0.1 µM (BUB1)?
A: The remaining activity at 0.1 µM was 85%.

Source: US11767310B2, “Nicotinamide RIPK1 inhibitors” (AbbVie Inc., priority 2021, dated 2023)
